{
  "source": "patent US20260102413A1",
  "about": "“TREATING PAIN ASSOCIATED WITH CENTRAL SENSITIZATION” (Medicon Pharmaceuticals, Inc., priority 2022, published 2026)",
  "key": {"[1]": {"system": "BALB/c mice infected with HSV-1 KOS strain (PHN)", "type": "in vivo, mouse", "settings": "mouse, in vivo", "protocol": "PHN was induced in mice by infecting them with the HSV-1 KOS strain virus and following established protocols (Ou et al, Front Immunol, 14, 1026269, 2023; Takasaki et al, Anesthesiology, 96 (5), 1168-74, 2002).\n; Reckitt Benckiser). Three days later, HSV-1 (10^6 PFUs in 20 μl PBS) was inoculated on the shin of the right hind paw (5×5 mm) after scarification with sandpaper. The virus was applied directly to the scarified area. The contralateral hind paw was without inoculation. Mock infection was performed using the same virus inactivated by heating at 60° C. for 1 h.\nIn a second experiment, the effect of the parent compound, sulindac, was tested in the same mouse model. Five days post-inoculation, sulindac (as a 5% gel), or vehicle control were administered topically onto both hind paws of mice three times a day for three days.\nPHN was induced in mice by infecting them with the HSV-1 KOS strain virus in line with the previous Examples.\nFive days post-inoculation, NO-sulindac (Formula XLIV) (as a 5% gel), or vehicle control were administered topically onto both hind paws of mice three times a day for three days."}, "[2]": {"system": "mice given paclitaxel (CIPN prevention)", "assay": "von Frey PWT, prevention of paclitaxel-induced CIPN pain, topical PS", "settings": "mouse, in vivo", "protocol": "In order to establish CIPN, paclitaxel is administered at 10 mg/kg intraperitoneally into C57/BL mice. […] This dosing regimen of paclitaxel produces pain associated with CIPN with time courses that are similar to those of pain after paclitaxel administration in cancer patients.\nThe first doses were administered 2 days prior to the first administration of paclitaxel."}, "[3]": {"system": "mice", "settings": "mouse, in vivo"}, "[4]": {"system": "mice with vincristine-induced neuropathic pain", "assay": "von Frey mechanical allodynia, vincristine-induced pain, topical PS", "settings": "mouse, in vivo", "text": "(§1) Paw withdrawn, licking or shaking were considered positive responses."}, "[5]": {"target": "COX-2 (Homo sapiens, UniProt P35354)", "sequence (P35354 18-604)": "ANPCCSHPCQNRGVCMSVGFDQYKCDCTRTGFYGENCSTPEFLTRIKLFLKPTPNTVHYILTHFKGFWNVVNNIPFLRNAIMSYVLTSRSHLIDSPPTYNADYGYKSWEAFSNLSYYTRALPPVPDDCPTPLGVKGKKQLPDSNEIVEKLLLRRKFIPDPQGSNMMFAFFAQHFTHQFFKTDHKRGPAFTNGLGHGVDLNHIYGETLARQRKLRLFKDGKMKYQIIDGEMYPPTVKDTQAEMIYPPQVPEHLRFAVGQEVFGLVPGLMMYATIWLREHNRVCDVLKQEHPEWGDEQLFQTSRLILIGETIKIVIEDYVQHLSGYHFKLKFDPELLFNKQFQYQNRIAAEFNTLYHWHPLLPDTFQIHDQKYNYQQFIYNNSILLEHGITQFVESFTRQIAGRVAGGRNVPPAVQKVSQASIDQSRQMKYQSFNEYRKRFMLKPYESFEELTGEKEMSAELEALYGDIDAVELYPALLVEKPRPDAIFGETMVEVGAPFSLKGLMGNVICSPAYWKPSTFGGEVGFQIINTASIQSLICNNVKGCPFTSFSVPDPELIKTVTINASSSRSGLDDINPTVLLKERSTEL", "settings": "cited from earlier work"}, "[6]": {"system": "mice with oxaliplatin-induced neuropathic pain", "assay": "von Frey mechanical allodynia, oxaliplatin-induced pain, topical PS", "settings": "mouse, in vivo", "text": "as §1"}, "[7]": {"system": "mice with NTG-induced chronic migraine", "assay": "von Frey PWT, NTG-induced chronic migraine model", "type": "in vivo, mouse", "settings": "mouse, in vivo", "text": "The NTG-induced chronic migraine model was used as described previously."}, "[8]": {"system": "chronic pain after LASIK", "assay": "PS to outer surface of eyelid in a subject after kerato-refractive surgery (LASIK)", "settings": "in vivo"}, "[9]": {"assay": "drug levels in proximal and distal half of the sciatic nerve after topical PS", "type": "in vivo, mouse", "settings": "mouse, in vivo", "protocol": "In a separate experiment we studied 8 mice with paclitaxel-induced PN treated with PS 8% ointment 3×/d for 2 wks. Mice were euthanized as above 30 minutes after the last dose of PS. From these mice we harvested both sciatic nerves dividing each into proximal and distal halves, and combined the corresponding halves of every two animals for assay of drug levels."}, "[10]": {"system": "STZ-diabetic rats", "type": "in vivo, rat", "settings": "rat, in vivo", "text": "The animal model corresponds to that used for Example 4, but using a prevention protocol. As in Example 4, the outcome measure, determining the effect of the treatment on the prevention of mechanical allodynia, was the PWT test, using von Frey filaments. The measurements were taken at day −3, before treatment or induction of neuropathic pain associated with DPN, and again at the end of the study period (day 28).\nThe rats were randomised into treatment groups as follows, all having an average body weight of about 225 g. • 1. Group 1: naïve rats (n=6) • 2. Group 2: STZ only (n=8) • 3. Group 3: STZ plus vehicle (n=8) • 4. […] Group 5: STZ plus sulindac 0.7% (n=8) • 6. Group 6: STZ plus lidocaine cream 5% (n=8)\nEach treatment group was subjected to a PWT assessment at day −3 in order to determine the baseline of mechanical allodynia.\nFor those rats in the lidocaine treatment group, lidocaine cream was applied only once to both hind paws of the rats 30 min before the final PWT measurement on day 28. On day 0, neuropathic pain associated with DPN was induced with the administration of STZ, and the blood glucose was checked on day 3."}, "[11]": {"system": "corneal neuropathic pain", "assay": "preliminary in vivo evidence, PS to the ocular surface, corneal neuropathic pain"}, "[12]": {"type": "in vivo, mouse", "settings": "mouse, in vivo", "protocol": "At 0.5, 1, 3, 5, 12, 18, and 24 h, mice (n=4-5 mice/time point) were euthanized with CO2 inhalation. Blood was drawn immediately after death. Tissues, including paw skin, paw muscle, leg muscle, the sciatic nerve and lumbar DRG bilaterally were dissected quickly, immediately frozen in liquid nitrogen and stored at −80° C. until analyzed."}, "[13]": {"system": "mice with paclitaxel-induced central sensitization", "assay": "cold allodynia (acetone test), paclitaxel-induced central sensitization", "settings": "mouse, in vivo", "protocol": "To determine the outcome of treatment, assessment of mechanical allodynia was performed. […] Both methods of assessing allodynia are described in Toma W, et al. Neuropharmacology 2017; 117:305-15. Mechanical and cold allodynia are determined at least one day apart in the same animal.\nThe acetone test was used. Briefly, acetone was applied onto the plantar surface of each hind paw. The time each mouse spent licking, lifting, and/or shaking the hind paw recorded over 60 seconds was the score for cold allodynia."}, "[14]": {"assay": "in vivo", "settings": "rat", "protocol": "Approximately 800 μL of blood were collected through cardiac puncture and immediately centrifuged.\nTissue samples were harvested using separate dissection instruments for each tissue sample to avoid cross contamination, and snap frozen. The levels of the test drug were determined by HPLC.\nAs previously described (Wen et al, 2019), each plasma sample was mixed with double volume of acetonitrile and centrifuged at 13,200 rpm for 15 min. Tissue samples were weighed, ddH2O (100-300 μL, depending on tissue weight) was added, and they were homogenized. Following addition of acetonitrile (twice the volume of the homogenate), the mixture was sonicated for 10 min, centrifuged at 13,200 rpm for 15 min, and analyzed by HPLC, as reported (Wen et al, 2019).\nIt was performed following a previously reported method (Xie et al, 2012). Briefly, the HPLC system consisted of a Waters Alliance 2695 Separations Module (Milford, MA, USA) equipped with a Waters 2998 photodiode array detector (328 nm) and a Thermo Hypersil BDS C18 column (150×4.6 mm, particle size 3 μm). The mobile phase consisted of a gradient between solvent A (formic acid, CH3CN, H2O (0.1:4.9:95 v/v/v)) and solvent B (CH3CN) at a flow rate of 1 mL·min−1 at 30° C. We applied gradient elution from 30 to 100% solvent B from 0-6 min, and it was maintained at 100% solvent B until 8 min.\nThe methods are identical to those used in Example 27.\nA single dose of PN or PSA was given by oral gavage to groups of three Sprague-Dawley rats, which were euthanized and dissected according to the early example. The oral gavage solution of phosphonaproxen was prepared by dissolving in 10% DMSO and then suspending it in corn oil."}, "[15]": {"target": "COX-1 (Homo sapiens, UniProt P23219)", "sequence (P23219 24-599)": "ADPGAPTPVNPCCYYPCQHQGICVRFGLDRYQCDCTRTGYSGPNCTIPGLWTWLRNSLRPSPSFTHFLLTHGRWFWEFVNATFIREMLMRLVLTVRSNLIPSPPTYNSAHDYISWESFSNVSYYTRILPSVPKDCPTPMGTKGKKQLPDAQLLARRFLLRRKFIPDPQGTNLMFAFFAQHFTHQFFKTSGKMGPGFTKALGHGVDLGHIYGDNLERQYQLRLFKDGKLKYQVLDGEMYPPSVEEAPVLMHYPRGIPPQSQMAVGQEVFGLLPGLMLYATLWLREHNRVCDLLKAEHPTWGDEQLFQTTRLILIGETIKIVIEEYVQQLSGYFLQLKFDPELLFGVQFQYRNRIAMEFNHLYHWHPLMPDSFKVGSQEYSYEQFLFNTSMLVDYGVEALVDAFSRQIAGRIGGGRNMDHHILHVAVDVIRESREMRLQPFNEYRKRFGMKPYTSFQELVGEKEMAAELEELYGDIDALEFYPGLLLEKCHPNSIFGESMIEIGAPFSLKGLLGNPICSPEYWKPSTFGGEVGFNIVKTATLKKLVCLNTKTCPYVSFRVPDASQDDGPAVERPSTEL", "settings": "cited from earlier work"}, "[16]": {"system": "mice with chronic constriction injury of the left sciatic nerve (PTPN)", "assay": "von Frey PWT, chronic constriction injury (CCI) model of PTPN, topical compounds", "type": "in vivo, mouse", "settings": "Q922, PSA 5% on left hind paw 3x/day 6 days"}},
  "note": "Where two headings read alike, the source gives them in different places.",
  "data": [
    {"molecule": "CCOP(=O)(OCC)OCCCCOC(=O)CC1=C(C)/C(=C/c2ccc([S+](C)[O-])cc2)c2ccc(F)cc21", "note": "(stereo not shown) [PS, phosphosulindac]", "values": [
      {"measurement": "PWT, g Mean ± SEM, Post-inoculation, day 5", "setting": "[1]", "result": "0.53 ± 0.06", "unit": "g"},
      {"measurement": "PWT, g Mean ± SEM, Post-treatment", "setting": "[1]", "result": "0.93 ± 0.06", "unit": "g"},
      {"measurement": "PWT, g Mean ± SEM, Pre-inoculation", "setting": "[1]", "result": "1.27 ± 0.19", "unit": "g"},
      {"measurement": "PWT, gm Mean ± SEM", "setting": "[2]", "result": "0.4 ± 0.01", "unit": "gm"},
      {"measurement": "mechanical allodynia score (von Frey)", "setting": "[2]", "result": "1.2 ± 0.15", "unit": "g"},
      {"measurement": "topical or systemic side effects", "setting": "[3]", "result": "no topical or systemic side effects"},
      {"measurement": "mechanical allodynia score (von Frey)", "setting": "[4]", "result": "1.5 ± 0.09", "unit": "g"},
      {"measurement": "inhibition of COX-2", "setting": "[5]", "result": "does not inhibit"},
      {"measurement": "mechanical allodynia score (von Frey) after PS treatment", "setting": "[6]", "result": "1.8 ± 0.09", "unit": "g"},
      {"measurement": "PWT, g Mean ± SEM, Baseline", "setting": "[7]", "result": "2.28 ± 0.34", "unit": "g"},
      {"measurement": "PWT, g Mean ± SEM, Day 11", "setting": "[7]", "result": "1.18 ± 0.10", "unit": "g"},
      {"measurement": "effect on chronic pain after LASIK", "setting": "[8]", "result": "dramatically reduced chronic pain"},
      {"measurement": "concentration in distal half of the sciatic nerve, mean ± SEM", "setting": "[9]", "result": "17.0 ± 5.1", "unit": "µM"},
      {"measurement": "concentration in proximal half of the sciatic nerve, mean ± SEM", "setting": "[9]", "result": "0.9 ± 0.3", "unit": "µM"},
      {"measurement": "von Frey, gm mean ± SEM", "setting": "[10]", "result": "33.1 ± 1.6", "unit": "gm"},
      {"measurement": "analgesic effect on corneal neuropathic pain", "setting": "[11]", "result": "striking analgesic effect"},
      {"measurement": "detection in the systemic circulation", "setting": "[12]", "result": "no PS was detected"},
      {"measurement": "cold allodynia score (acetone test, time licking/lifting/shaking over 60 s)", "setting": "[13]", "result": "3.1±0.4"},
      {"measurement": "detection in the systemic circulation", "setting": "[14]", "result": "No PS was detected"},
      {"measurement": "T1/2", "setting": "[14]; po, 250 mg/kg", "result": 3.3, "unit": "h"},
      {"measurement": "inhibition of COX-1", "setting": "[15]", "result": "does not inhibit"}
    ]},
    {"molecule": "CCOP(=O)(NCCCCNC(=O)c1ccccc1SC/C=C(\\C)CC/C=C(\\C)CCC=C(C)C)OCC", "note": "[Q922]", "values": [
      {"measurement": "PWT, g Mean ± SEM", "setting": "[16]", "result": "1.48 ± 0.36", "unit": "g"}
    ]}
  ]
}
